The record followed here is US9913843B2, “Protein kinase C inhibitors and uses thereof” (Rigel Pharmaceuticals, Inc., priority 2012, dated 2018).

This experiment concerns PKC mediated IL-2 production in human primary T cells. As to the kind of experiment: IL-2 ELISA, human primary T cell, anti CD3+CD28+ (whole cell functional assay for PKC mediated IL-2 production). In kind it is cell-based. The protocol:
Human primary T cells were prepared as follows. Fresh PBMC's from All Cells (Cat # PB002) were re-suspended in RPMI (RPMI-1640 with L-Glutamine; Mediatech, Inc., Herndon Va., cat. #10-040-CM) with 10% FBS and seeded into flasks and incubated at 37° C. for 2 hours to allow the monocytes to adhere. The non-adherent cells were then centrifuged and re-suspended in RPMI medium containing 40 U/ml IL2 and seeded into a flask pre-coated with 1 μg/ml aCD3 and 5 ug/ml aCD28 (Anti-Human CD3, BD Pharmingen Catalog #555336, Anti-Human CD28, Beckman Coulter Catalog #IM1376). The cells were stimulated for 3-4 days, then transferred to a fresh flask and maintained in RPMI (RPMI-1640 with L-Glutamine; Mediatech, Inc., Herndon Va., cat. #10-040-CM) with 10% FBS and 40 U/ml IL-2.
Human primary T cells (100,000 cells per well) were pre-incubated with or without test compound in RPMI-1640 with L-Glutamine and 10% FBS for 1 hour at 37° C. Cells were then stimulated by transferring them to round-bottom 96-well plates pre-coated with 1 μg/ml aCD3 and 5 μg/ml aCD28. For counter assay, cells were instead stimulated by adding 8× stock solutions of PMA and ionomycin in RPMI-1640 with L-Glutamine and 10% FBS (for final concentrations of 0.5 ng/ml PMA and 0.1 μM ionomycin, both from Calbiochem). Cells were incubated at 37° C. for 24 hours before 100 μL supernatants were harvested for quantification of IL-2 by ELISA using Human IL-2 Duoset ELISA Kit from R and D Systems, Cat. # DY202E.
Compounds 1-156 were tested in a whole cell functional assay for PKC mediated IL-2 production as follows. Human primary T cell isolation and culture: Human primary T cells were prepared as follows. Whole blood was obtained from a healthy volunteer, mixed 1:1 with PBS, layered on to Ficoll Hypaque (Amersham Pharmacia Biotech, Piscataway, N.J., Catalog #17-1440-03) in 2:1 blood/PBS:ficoll ratio and centrifuged for 30 minutes at 4° C. at 1750 rpm. The cells at the serum: ficoll interface were recovered and washed twice with 5 volumes of PBS. These freshly isolated human peripheral blood mononuclear cells were cultured in Yssel's medium containing 40 U/ml IL2 in a flask pre-coated with 1 μg/ml aCD3 and 5 μg/ml aCD28 (Anti-Human CD3, BD Pharmingen Catalog #555336, Anti-Human CD28, Beckman Coulter Catalog #IM1376). The cells were stimulated for 3-4 days, then transferred to a fresh flask and maintained in RPMI (RPMI-1640 with L-Glutamine; Mediatech, Inc., Herndon Va., cat. #10-040-CM) with 10% FBS and 40 U/ml IL-2. The primary T-cells were then washed twice with PBS to remove the IL-2.
Primary T cell stimulation and IL2 ELISA: Human primary T cells (100,000 cells per well) were pre-incubated with or without test compound in Yssel's medium for 1 hour at 37° C. Cells were then stimulated by transferring them to round-bottom 96-well plates pre-coated with 1 μg/ml aCD3 and 5 μg/ml αCD28. For counter assay, cells were instead stimulated by adding 8× stock solutions of PMA and ionomycin in Yssels (for final concentrations of 0.5 ng/ml PMA and 0.1 uM ionomycin, both from Calbiochem). Cells were incubated at 37° C. for 24 hours before 100 μL supernatants were harvested for quantification of IL-2 by ELISA using Human IL-2 Duoset ELISA Kit from R and D Systems, Cat. # DY202E.

The mark [1] stands for this setting: 24 h, human primary T cells stimulated with anti-CD3 + anti-CD28, IL-2 by ELISA, read-out: IC50 for blocking IL-2 production.
Setting [2] is: human primary T cells stimulated with anti-CD3 + anti-CD28, 24 h, IL-2 by ELISA, 8 pt, read-out: IL2 ELISA, Human primary T cell, anti-CD3 + CD28, 8 pt (IC50).

Read-outs that look alike come from different tables or passages of the source. Where only a bound is given, the exact number is not on record here.

For `COc1cc(Nc2ncc(F)c(NC[C@@H]3CCCN4CCCC[C@H]34)n2)cc(OC)c1` [Compound 11, 5-fluoro-N4-(((1S,9aR)-octahydro-1H-quinolizin-1-yl)methyl)-N2-(3,5-dimethoxyphenyl)pyrimidine-2,4-diamine], the IC50 by setting is: under setting [1], under 30000 nM; under setting [2], 1080 nM.
For `N#Cc1cc(Nc2ncc(C(F)(F)F)c(NC[C@@H]3CCCN4CCCC[C@H]34)n2)ccc1C1CC1` [Compound 109, 5-(4-(((1S,9aR)-octahydro-1H-quinolizin-1-yl)methylamino)-5-(trifluoromethyl)pyrimidin-2-ylamino)-2-cyclopropylbenzonitrile] the same measures were under 30000 nM and 6580 nM.
For `Cn1nnn(-c2cc(Nc3ncc(C#N)c(NC[C@@H]4CCCN5CCCC[C@H]45)n3)c(F)cc2C2CC2)c1=O` [Compound 99, 4-(((1S,9aR)-octahydro-1H-quinolizin-1-yl)methylamino)-2-(4-cyclopropyl-2-fluoro-5-(4,5-dihydro-4-methyl-5-oxotetrazol-1-yl)phenylamino)pyrimidine-5-carbonitrile], the half-inhibitory concentration (IC50) is, setting by setting: under setting [1], under 30000 nM; under setting [2], 50.9 nM.
For `Fc1cc(C2CC2)c(-n2cnnn2)cc1Nc1ncc(F)c(NC[C@@H]2CCCN3CCCC[C@H]23)n1` [Compound 2, N2-(4-cyclopropyl-2-fluoro-5-(1H-tetrazol-1-yl)phenyl)-5-fluoro-N4-(((1S,9aR)-octahydro-1H-quinolizin-1-yl)methyl)pyrimidine-2,4-diamine] the same measures were under 30000 nM and 372 nM.
As for `N#Cc1cc(Nc2ncc(C#N)c(NC[C@@H]3CCCN4CCCC[C@H]34)n2)ccc1C1CC1` [Compound 120, 4-(((1S,9aR)-octahydro-1H-quinolizin-1-yl)methylamino)-2-(3-cyano-4-cyclopropylphenylamino)pyrimidine-5-carbonitrile], the IC50 under setting [1] is under 30000 nM and the IC50 under setting [2] was found to be 9.3 nM.
As to `Cc1ccc(Nc2ncc(Cl)c(NC[C@@H]3CCCN4CCCC[C@H]34)n2)cc1C#N` [Compound 40, 5-(4-(((1S,9aR)-octahydro-1H-quinolizin-1-yl)methylamino)-5-chloropyrimidin-2-ylamino)-2-methylbenzonitrile], the concentration for half-maximal inhibition (IC50) reads like this: under setting [1], under 30000 nM; under setting [2], 267 nM.
With `Cn1nnn(-c2cc(Nc3ncc(Cl)c(NC[C@@H]4CCCN5CCCC[C@H]45)n3)c(F)cc2C2CC2)c1=O` [Compound 34, 1-(5-(4-(((1S,9aR)-octahydro-1H-quinolizin-1-yl)methylamino)-5-chloropyrimidin-2-ylamino)-2-cyclopropyl-4-fluorophenyl)-4-methyl-1H-tetrazol-5(4H)-one], the IC50 reads like this: under setting [1], under 30000 nM; under setting [2], 670 nM.
For the molecule `N#Cc1cnc(Nc2cc(-n3nnnc3C3CC3)ccc2F)nc1NC[C@@H]1CCCN2CCCC[C@H]12` [Compound 123, 4-(((1S,9aR)-octahydro-1H-quinolizin-1-yl)methylamino)-2-(5-(5-cyclopropyl-1H-tetrazol-1-yl)-2-fluorophenylamino)pyrimidine-5-carbonitrile], the half-maximal inhibitory concentration (IC50) by setting is: under setting [1], under 30000 nM; under setting [2], 41.8 nM.
For `Cc1ccc(Nc2ncc(F)c(NC[C@@H]3CCCN4CCCC[C@H]34)n2)cc1C#N` [Compound 9, 5-(4-(((1S,9aR)-octahydro-1H-quinolizin-1-yl)methylamino)-5-fluoropyrimidin-2-ylamino)-2-methylbenzonitrile], the IC50 is, setting by setting: under setting [1], under 30000 nM; under setting [2], 195 nM.
For `N#Cc1cc(Nc2nccc(NC[C@@H]3CCCN4CCCC[C@H]34)n2)c(F)cc1C1CC1` [Compound 56, 5-(4-(((1S,9aR)-octahydro-1H-quinolizin-1-yl)methylamino)pyrimidin-2-ylamino)-2-cyclopropyl-4-fluorobenzonitrile] the same measures were under 30000 nM and 3800 nM.
